Values after ≈ are worked out from the molar mass of the structure shown. Like-named read-outs stand apart in the source and are kept apart here.
Columns and labels:
L. major promastigotes = experiment: L. major promastigote dose response assay (alamarBlue/resazurin); assay type: cell-based; conditions: 44 hrs + 4 hrs alamarBlue/resazurin, 26° C.
Method: (§1) Using a standard alamarBlue™ assay, activity and selectivity were assessed using L. major promastigotes and HepG2 cells, respectively.
All parasite and human cell cultures were grown and manipulated following biosafety level 2 instructions under sterile conditions. L. major FV1, L. amazonensis (MHOM/Br/75/JOSEFA), L. donovani BOB (derived from MHOM/SD/62/1S-CL2D), T. brucei (90-13, 427 strain) and T. cruzi (Dm28c) were used throughout.
All steps were carried out under sterile conditions. Frozen stocks of the relevant Leishmania promastigote species were thawed rapidly and added to Schneider's media. Promastigotes were grown at 26° C. in Nunc EasYFlask 25 cm^2 Nunclon Delta Surface (ThermoScientific) and frozen stocks were prepared on low passage cultures (p2-4) by pelleting the cells by centrifugation and resuspending in Schneider's media with 10% DMSO. The cultures were aliquoted into cryovials (Starlab) and cooled slowly to −150° C. for long term storage.
All steps were carried out under sterile conditions. […] Cycloheximide or amphotericin B were used as positive controls and 2% DMSO was used as a negative control. alamarBlue® (ThermoFisher scientific) or resazurin solution was added to each well and incubated for a further 4 hrs at 26° C. Cell-viability was determined using a BioTek™ FLx800 microplate reader with Gen5® 1.08 data analysis software (BioTek) by monitoring fluorescence emission (λex 560/λem 590 nm). Dose response curves were fitted using sigmoidal regression analysis (GraphPad Prism 8 software) and used to calculate EC50 values.

[1] = system: L. amazonensis promastigotes; experiment: L. amazonensis promastigote dose response assay (alamarBlue/resazurin); assay type: cell-based; conditions: 44 hrs + 4 hrs alamarBlue/resazurin, 26° C., read-out: EC50 (L. amaz)/μM
[2] = system: L. donovani promastigotes; experiment: L. donovani promastigote dose response assay (resazurin); assay type: cell-based; conditions: promastigotes, 72 hrs at 26° C., resazurin, read-out: EC50 (L. don)/μM
Kinetic solubility = conditions: for solubility at 2 h: kinetic from dmso stock
From the text: All chemicals and solvents were sourced from commercial suppliers. Buffers were made up using purified water from a MilliQ® water purification system. Biorelevant buffers (FESSIF, FASSIF and FASSGF) were purchased from Biorelevant and made up according to manufacturer's instructions. 15% FBS (heat inactivated, South American origin, ThermoFisher scientific) in PBS (Fisher Scientific) was filter sterilised (0.22 μm Fisherbrand™ Sterile PES Syringe Filter, Fisher Scientific) before use. Sodium taurocholate was purchased from Merck.
λmax was determined for each compound from the UV-Vis absorption spectrum of a 200 LIM compound solution in buffer of interest using a Varian Cary® 100 UV-Vis Spectrophotometer. A calibration curve of λmax VS concentration was obtained by serial dilution of compound from 200 μM in the buffer of interest, correcting for background buffer absorption. For each sample, a DMSO solution of compound was incubated in buffer of interest (<5% DMSO) for 2 hrs at RT. The solution was filtered (0.22 μm Fisherbrand™ Sterile PES Syringe Filter, Fisher Scientific) or centrifuged (14,500 rpm, 10 min) to remove undissolved debris and the supernatant was removed and diluted as required. The corrected UV absorption of the supernatant at Amax Was measured using a Varian Cary® 100 UV-Vis Spectrophotometer and compared to the calibration curve to determine compound solubility.

HepG2 cells = experiment: HepG2 cytotoxicity dose response assay; conditions: read-out: CC50 (HepG2)/μM, 44 hrs + 4 hrs alamarBlue/resazurin
Method: as §1
All steps were carried out under sterile conditions. HepG2 cells were thawed rapidly into DMEM. Cells were grown at 37° C., 5% CO2 for >5 days in T-75 CytoOne® Flask, TC-Treated, Vented flasks (Starlab) in a Sanyo MCO-18M incubator. […] The trypsin was deactivated by addition of DMEM. The cells were homogenised and 5 mL of cell culture was added to 20 mL fresh DMEM. Cells were split 1:4 every 3 days. Frozen stocks were prepared in the same way as the passage, but resuspended into DMEM with 10% DMSO, aliquoted into cryovials (Starlab) and cooled slowly to −150° C. for long term storage.
All steps were carried out under sterile conditions. 80-100% confluent HepG2 were plated into Corning™ Costar™ 96-Well Flat-Bottom Microplates (Fisher Scientific) by adding 200 μL of a homogenous dispersion of cells at a concentration of 0.6×10^5 cells mL^−1 before incubation at 37° C., 5% CO2 overnight. […] The plates were incubated at 37° C., 5% CO2 for 44 hrs in a Sanyo MCO-18M incubator. alamarBlue® (ThermoFisher scientific) or resazurin solution (10 μL) was added to each well and incubated for a further 4 hrs at 37° C., 5% CO2. Cell-viability was determined using a BioTek™ FLx800 microplate reader with Gen5® 1.08 data analysis software (BioTek) by monitoring fluorescence emission (Nex 560/hem 590 nm). Dose response curves were fitted using sigmoidal regression analysis (GraphPad Prism 8 software) and used to calculate EC50 values.

S. aureus (FDA209P) = experiment: Antibacterial MIC/growth assay, S. aureus; assay type: cell-based; conditions: 16 hours at 37° C., absorbance 600 nm
Method: DMSO was used as a solvent control at a maximum final concentration of 10% (a greater percentage than would be achieved using the compounds at the concentrations in question). Plates were incubated at 37° C. with shaking for 16 hours before measuring absorbance at 600 nm. These values were then used to calculate percentage growth at each dilution of compound in comparison to growth in the absence of compound. The following day, the contents of each well were resuspended using a multichannel pipette, and 5 μl from each well was then applied to LB agar plates. These were incubated at 30° C. in a stationary incubator for 16 hours before imaging.

[3] = design: species or system swiss albino mice; conditions: mouse, in vivo
Method: DMPK studies were performed by GVK BIO Sciences Pvt Ltd Hyderabad, India, in collaboration with LifeArc. Three swiss albino mice per experiment were inoculated (IP or oral) with compound at 10 mg kg^−1 in 10% DMSO (2 mg mL^−1) on day 1. A small blood sample (50 μL) was taken after 15 minutes, 30 minutes, 1 hr, 2 hr, 4 hr, 6 hr, 8 hr and 24 hr. Proteins were precipitated in acetonitrile and the supernatant was diluted in 1:1 methanol:water and subject to LCMS analysis. The concentration of compound in the blood was determined by comparing the peak area to a calibration curve.

[4] = kinetic solubility in FESSIF, 2 hrs at RT
[5] = kinetic solubility in PBS, 2 hrs at RT

Row | Molecule | EC50 (L. major promastigotes) [µM] | EC50 [1] [µM] | EC50 [2] [µM] | Solubility (PBS)/μM (Kinetic solubility; [5]) [µM] | further results
1 | CNC(=O)C1CCCC1NC(=O)c1ccc([N+](=O)[O-])s1 (racemic) [Compound 25, N—[±2′-(methylcarbamoyl)cyclopentyl]-5′-nitrothiophene-2-carboxamide] | 20 | 8 | 3.4 | – | –
2 | CNC(=O)c1ccsc1NC(=O)c1ccc([N+](=O)[O-])o1 [Compound 17, N-[3-(methylcarbamoyl)thiophen-2-yl]-5′-nitrofuran-2′-carboxamide] | – | – | – | – | EC50 (L. major promastigotes; Leishmania major, 48 h): 0.37 µM; EC50 ([1]; Leishmania amazonensis, 48 h): 0.33 µM; EC50 ([2]; Leishmania donovani): 0.2 µM
3 | NC(=O)c1ccccc1NC(=O)c1ccc([N+](=O)[O-])s1 [Compound 27, N-(2-carbamoylphenyl)-5′-nitrothiophene-2′-carboxamide] | 0.47 | 0.079 | – | – | Solubility (FESSIF)/μM (Kinetic solubility): 90 µM (≈ 26.2 µg/mL); Solubility (PBS)/μM (Kinetic solubility): <2.5 µM
4 | CNC(=O)c1ccccc1NC(=O)c1ccc([N+](=O)[O-])s1 [Compound 28, N-[2-(methylcarbamoyl)phenyl]-5′-nitrothiophene-2′-carboxamide] | 0.65 | 0.052 | 0.012 | 8.5 (≈ 2.6 µg/mL) | Solubility (FESSIF)/μM (Kinetic solubility; [4]): 143 µM (≈ 43.7 µg/mL); CC50 (HepG2 cells): 5 µM
5 | O=C(Nc1ccccc1)c1ccc([N+](=O)[O-])s1 [Compound 33, 5′-nitro-N-phenylthiophene-2′-carboxamide] | 4.06 | 3.6 | 0.93 | 15 (≈ 3.72 µg/mL) | –
6 | CNC(=O)c1ccc(OC)cc1NC(=O)c1ccc([N+](=O)[O-])s1 [Compound 43, N-[5-methoxy-2-(methylcarbamoyl)phenyl]-5′-nitrothiophene-2′-carboxamide] | 0.33 | 0.021 | 0.006 | <7.4 | Solubility (FESSIF)/μM (Kinetic solubility; [4]): 38 µM (≈ 12.7 µg/mL); CC50 (HepG2 cells): > 100 µM
7 | CNC(=O)c1ccc(C)cc1NC(=O)c1ccc([N+](=O)[O-])s1 [Compound 44, N-[5-methyl-2-(methylcarbamoyl)phenyl]-5′-nitrothiophene-2′-carboxamide] | 0.34 | 0.027 | 0.005 | <7.4 | Solubility (FESSIF)/μM (Kinetic solubility; [4]): 65 µM (≈ 20.8 µg/mL); CC50 (HepG2 cells): 31 µM
8 | CNC(=O)c1ccc(C(F)(F)F)cc1NC(=O)c1ccc([N+](=O)[O-])s1 [Compound 45, N-[2-(methylcarbamoyl)-5-(trifluoromethyl)phenyl]-5′-nitrothiophene-2′-carboxamide] | 1.84 | 0.24 | – | 6.5 (≈ 2.43 µg/mL) | Solubility (FESSIF)/μM (Kinetic solubility; [4]): 250 µM (≈ 93.3 µg/mL); CC50 (HepG2 cells): 13 µM
9 | CNC(=O)c1ccc(Br)cc1NC(=O)c1ccc([N+](=O)[O-])s1 [Compound 46, N-[5-bromo2-(methylcarbamoyl)phenyl]-5′-nitrothiophene-2′-carboxamide] | 0.57 | 0.048 | 0.12 | <2.5 | Solubility (FESSIF)/μM (Kinetic solubility; [4]): 210 µM (≈ 80.7 µg/mL); CC50 (HepG2 cells): 7.2 µM
10 | CNC(=O)c1ccsc1/N=C/c1ccc([N+](=O)[O-])s1 [Compound 50, N-methyl-2-[(E)-[(5′-nitrothiophen-2′-yl)methylidene]amino]thiophene-3-carboxamide] | – | – | – | – | solubility at 2 h (Kinetic solubility; PBS, aqueous buffer): 101 ± 6 µM (≈ 29.8 µg/mL); EC50 (L. major promastigotes; Leishmania major, 48 h): 0.86 ± 0.07 µM
11 | CNC(=O)c1ccc(OCCOCCOC)cc1NC(=O)c1ccc([N+](=O)[O-])s1 [Compound 51, N-{5-[2″-(2″-methoxyethoxy)ethoxy]-2-(methylcarbamoyl)phenyl}-5′-nitrothiophene-2′-carboxamide] | – | – | – | – | solubility at 2 h (Kinetic solubility; FASSGF, fassgf or other biorelevant): 11 µM (≈ 4.66 µg/mL); solubility at 2 h (Kinetic solubility; FASSIF): < 7.4 µM; solubility at 2 h (Kinetic solubility; FESSIF): 7.26 µM (≈ 3.07 µg/mL); solubility at 2 h (Kinetic solubility; PBS, aqueous buffer): 2.27 µM (≈ 0.961 µg/mL); EC50 (L. major promastigotes; Leishmania major, 48 h): 0.32 µM; EC50 ([1]; Leishmania amazonensis, 48 h): 0.22 µM; EC50 ([2]; Leishmania donovani): 0.19 µM
12 | CNC(=O)c1ccc(OCCC2CCOCC2)cc1NC(=O)c1ccc([N+](=O)[O-])s1 [Compound 54, N-[2-(methylcarbamoyl)-5-[2″-(oxan-4″-yl)ethoxy]phenyl]-5′-nitrothiophene-2′-carboxamide] | – | – | – | – | solubility at 2 h (Kinetic solubility; FESSIF): 47 µM (≈ 20.4 µg/mL); solubility at 2 h (Kinetic solubility; PBS, aqueous buffer): 3.7 µM (≈ 1.6 µg/mL); inhibition of growth of S. aureus (S. aureus (FDA209P)): effective at inhibiting the bacteria at low concentrations; EC50 (L. major promastigotes; Leishmania major, 48 h): 0.33 µM; EC50 ([1]; Leishmania amazonensis, 48 h): 0.46 µM; EC50 ([2]; Leishmania donovani): 0.34 µM
13 | CNC(=O)c1ccc(C(C)(C)C)cc1NC(=O)c1ccc([N+](=O)[O-])s1 [Compound 55, N-[5-tert-butyl-2-(methylcarbamoyl)phenyl]-5′-nitrothiophene-2′-carboxamide] | – | – | – | – | solubility at 2 h (Kinetic solubility; FESSIF): 260 µM (≈ 94 µg/mL); solubility at 2 h (Kinetic solubility; PBS, aqueous buffer): < 2.5 µM; EC50 (L. major promastigotes; Leishmania major, 48 h): 1.35 µM; EC50 ([1]; Leishmania amazonensis, 48 h): 2.5 µM; EC50 ([2]; Leishmania donovani): 1.3 µM
14 | Ethyl 2-(5′-nitrothiophene-2′-amido)thiophene-3-carboxylate [Compound 4] | 0.93 | 1.85 | – | – | pharmacokinetic profile [3]: poor pharmacokinetic profiles
15 | Methyl 2-(5′-nitrothiophene-2′-amido)thiophene-3-carboxylate [Compound 3] | 0.59 | 0.91 | 0.3 | – | pharmacokinetic profile [3]: poor pharmacokinetic profiles
16 | N-(3-carbamoylthiophen-2-yl)-5′-nitrothiophene-2′-carboxamide [Compound 1] | 0.52 | 0.042 | 0.004 | – | pharmacokinetic profile [3]: poor pharmacokinetic profiles
17 | N-(3-cyanothiophen-2-yl)-5′-nitrothiophene-2′-carboxamide [Compound 5] | 1.1 | 2.1 | 1.12 | – | –
18 | N-methyl-2-(5′-nitrothiophene-2′-amido)thiophene-3-carboxamide [Compound 2] | 0.99 | 0.29 | 0.033 | – | pharmacokinetic profile [3]: poor pharmacokinetic profiles

— US20260125356A1, “TREATMENT OF LEISHMANIASIS” (THE UNIVERSITY OF DURHAM, priority 2022, published 2026)
